Six compounds from patent US20240139214A1, “AGENT FOR SUPPRESSING IL-31 PRODUCTION AND PHARMACEUTICAL COMPOSITION CONTAINING THE SAME” (KYUSHU UNIVERSITY, NATIONAL UNIVERSITY CORPORATION, priority 2021, published 2024) can be followed below.

The test system of series [1] is VEGFA expression in human cancer cell line HT1080. The series is described as follows: Hypoxia-induced VEGFA expression in HT1080. The class given is cell-based. The following applies: HT1080, 1% O2; FIG. 7. The procedure: (§1) Human sarcoma cell line HT1080 was provided by Y. Matsumoto (Kyushu University). For hypoxic induction, HT1080 (3×10^5 cells) was cultured in 1% O2 for 12 hours before assays.
(§2) Total RNA was isolated using ISOGEN (Nippon Gene Co., Ltd.). For amplification by PCR, RNA samples treated with RNase-free DNase I (Thermo Fisher Scientific) were reverse-transcribed with oligo(dT) primers (TFS) and SuperScript III reverse transcriptase (TFS). Real-time PCR was performed in a CFX Connect™ thermal cycler (BIO-RAD) using SYBR Green PCR Master Mix (Thermo Fisher Scientific). The expression of mouse and human target genes was normalized to expression of Hprt and PPIB genes, respectively. CFX Manager software (ver.3.1) supplied with the instrument was used for analysis.
(§3) (1) Although EPAS1 is known to control hypoxic responses through complex formation with aryl hydrocarbon receptor nuclear translocator (ARNT) (NPL 6), EPAS1-mediated Il31 promoter activation is independent of ARNT (NPL 4). FM19G11 is not a direct inhibitor of EPAS1, but is known to suppress the expression of the EPAS1 gene (Epas1) by acting on an unidentified target (NPL 7). Treatment of human cancer cell line HT1080 with […] suppressed VEGFA expression and GLUT1 expression induced by hypoxia (FIG. 7).

The test system of series [2] is GLUT1 expression in human cancer cell line HT1080. Description: Hypoxia-induced GLUT1 expression in HT1080. The class given is cell-based. Particulars: HT1080, 1% O2; FIG. 7. The procedure: as §1, §2, §3
The next series concerns CD4+ T cells. The series is described as follows: T cell proliferation assay (PMA and ionomycin, 3H-thymidine incorporation). In kind it is cell-based, mouse. The following applies: for activity at 5 µM / activity at 10 µM / activity at 20 µM / activity at 40 µM: Mus musculus, CD4+ T, 66 h, read-out: Cell proliferation (%): based on the case using 0.2% DMSO taken as 100%. The procedure:
A T cell proliferation assay was performed by culturing CD4^+ T cells (5×10^4 cells) with T cell-depleted irradiated spleen cells (1×10^6 cells) in the presence of phorbol 12-myristate 13-acetate (PMA: 100 ng/ml; Sigma-Aldrich) and ionomycin (1 μg/ml; Sigma-Aldrich) for 66 hours. For the last 18 hours of culture, ^3H-thymidine (0.037 MBq) was added, and the incorporated radioactivity was measured with MicroBeta^2 (PerkinElmer, Inc., Waltham, MS).
A T cell proliferation assay was performed by culturing CD4^+ T cells (5×10^4 cells) with T cell-depleted irradiated spleen cells (1×10^6 cells) in the presence of phorbol 12-myristate 13-acetate (PMA: 100 ng/ml; Sigma-Aldrich) and ionomycin (1 μg/ml; Sigma-Aldrich) for 66 hours. Test compounds were added at various final concentrations at the start of culture. For the last 18 hours of culture, ^3H-thymidine (0.037 MBq) was added, and the incorporated radioactivity was measured with MicroBeta^2 (PerkinElmer, Inc., Waltham, MS). […]
On the technique in general: Uptake of a labelled nucleoside into DNA is a usual measure of proliferation.

For a further series, the system named is mouse IL-31 gene. The series is described as follows: IL-31 production inhibitory action: IL-31 gene expression by real-time PCR in antigen-stimulated CD4+ T cells from Dock8−/− AND Tg mice. The class given is cell-based. A general note: Quantitative PCR measures a nucleic acid by following its amplification.
The test system of a further series is IL-2 gene (Il2). The series is described as follows: IL-2 gene expression in CD4+ T cells from Dock8−/− AND Tg mice (real-time PCR). The class given is cell-based, mouse. The following applies: 2.5 μM; FIG. 2B. The procedure:
as §2
(§4) CD4^+ T cells (3×10^5 cells) from Dock8^−/− AND Tg mice were cultured with T cell-depleted irradiated spleen cells (5×10^6 cells) containing a test compound (2.5 μM) or a vehicle alone (0.1% DMSO), in the presence of MCC88-103 (3 μg/ml) for 24 hours.

The next series concerns IL-4 gene (Il4). Description: IL-4 gene expression in CD4+ T cells from Dock8−/− AND Tg mice (real-time PCR). The class given is cell-based, mouse. Particulars: 2.5 μM; FIG. 2B. As to the method: as §2, §4
The mark [3] stands for this setting: Mus musculus, CD4+ T, 24 h, read-out: qPCR results (IL-31 production (%)): based on the case using 0.1% DMSO taken as 100%.
Setting [4] is: Mus musculus, CD4+ T, 24 h, 2.5 μM, read-out: qPCR results (IL-31 production (%)): based on the case using 0.1% DMSO taken as 100%.

Each structure is given as a SMILES string.

`Cc1ccc(C(=O)COC(=O)c2cccc(NC(=O)c3ccc([N+](=O)[O-])cc3[N+](=O)[O-])c2)cc1` [FM419G11, reference compound]: the “VEGFA expression induced by hypoxia” value in series [1] is recorded as “suppressed”. In addition, the “GLUT1 expression induced by hypoxia” value in series [2] is given as “suppressed”.

For `O=C(O)c1ccc(-c2ncc(-c3cc(C(F)(F)F)ccc3Cl)[nH]2)cc1` [Compound 27, 4-(5-(2-Chloro-5-(trifluoromethyl)phenyl)-1H-imidazol-2-yl)benzoic Acid], in the series with CD4+ T cells, the activity at 5 µM was 86.2%, the activity at 10 µM was 78% and the activity at 20 µM stood at 70%. In addition, the activity at 0.078 µM with mouse IL-31 gene (Mus musculus, CD4+ T, 24 h, 0.078 μM, read-out: qPCR results (IL-31 production (%)): based on the case using 0.1% DMSO taken as 100%) came to 28.6%. In addition, in the series on mouse IL-31 gene (setting [3]), the activity at 0.156 µM stood at 35.1%, the activity at 0.312 µM was determined as 39.6%, the activity at 0.625 µM amounted to 43.1% and the activity at 1.25 µM was 46.8%.

As for `O=C(O)c1ccc(-c2nc(-c3cc(C(F)(F)F)ccc3Cl)n[nH]2)cc1` [Compound 25, 4-(3-(2-Chloro-5-(trifluoromethyl)phenyl)-1H-1,2,4-triazol-5-yl)benzoic Acid], in the series on CD4+ T cells, the activity at 10 µM was determined as 82.9%, the activity at 20 µM is 81.3% and the activity at 40 µM is 80.5%. In the series with mouse IL-31 gene (setting [3]), the activity at 0.312 µM worked out at 82.7%, the activity at 0.625 µM came out at 85.6% and the activity at 1.25 µM came to 72.2%. Moreover, in the series with mouse IL-31 gene (setting [4]), the activity at 2.5 µM is 81.9%.

`O=C(O)c1ccc(-c2cn(-c3cc(C(F)(F)F)ccc3F)nn2)cc1` [Compound 24, 4-(1-(2-Fluoro-5-(trifluoromethyl)phenyl)-1H-1,2,3-triazol-4-yl)benzoic Acid]: in the series with CD4+ T cells, the activity at 5 µM is 88.1%, the activity at 10 µM is 81.5%, the activity at 20 µM came out at 71.3% and the activity at 40 µM was 62.9%. Moreover, in the series with mouse IL-31 gene (setting [3]), the activity at 0.156 µM is 31.2%, the activity at 0.312 µM stood at 18.1%, the activity at 0.625 µM was 32% and the activity at 1.25 µM stood at 31.5%.

As for `CN(C)CCOc1ccc(/C=N/Nc2ccc(C(=O)O)cc2)cc1` [Negative control compound 1, 4-(2-(4-(2-(Dimethylamino)ethoxy)benzylidene)hydrazineyl)benzoic Acid, reference compound], the “effect on non-specific T cell proliferation induced by PMA and ionomycin” value in the series with CD4+ T cells (FIG. 4) is recorded as “neither of these compounds had an adverse effect”. In the series on mouse IL-31 gene (2.5 μM, FIG. 2A), the “antigen-induced IL-31 gene expression (in words)” value was “not inhibited”. In addition, the “IL-31 production inhibitory action (in words, discussion of Table 1)” value with mouse IL-31 gene (relative to compound 1) was “tended to notably decrease”. Further, the “effect on expression of IL-2 gene” value with IL-2 gene (Il2) is “neither of these compounds had an effect”. The “effect on expression of IL-4 gene” value with IL-4 gene (Il4) is listed as “neither of these compounds had an effect”.

As for `CN(C)c1ccc(-c2cnc(-c3ccc(C(=O)O)cc3)o2)cc1` [Compound 19, 4-(5-(4-(Dimethylamino)phenyl)oxazol-2-yl)benzoic Acid], in the series with CD4+ T cells, the activity at 5 µM was 86.3%, the activity at 10 µM stood at 79.4%, the activity at 20 µM stood at 66% and the activity at 40 µM turned out to be 67.4%. Moreover, in the series on mouse IL-31 gene (setting [3]), the activity at 0.312 µM was 67.6%, the activity at 0.625 µM amounted to 69.9% and the activity at 1.25 µM came out at 54.5%. The activity at 2.5 µM with mouse IL-31 gene (setting [4]) came out at 16.9%.
